# Measured values as given in ChEMBL document CHEMBL4359924, “Discovery of a novel 3,4-dimethylcinnoline carboxamide M4 positive allosteric modulator (PAM) chemotype via scaffold hopping” (Bioorg Med Chem Lett, 2019).
# What was measured:
# [1] = molecular target: Muscarinic acetylcholine receptor M4 (Homo sapiens) (UniProt P08173); assay: Positive allosteric modulation of human M4 receptor expressed in CHO cells co-expressing Gqi5 assessed as increase in acetylcholine-induced calcium mobilization incubated with EC20 ACh for 140 secs and subsequent EC80 Ach addition further incubated for 120 secs by Fluo-4-AM dye based fluorescence …
# Chain of Muscarinic acetylcholine receptor M4 (Homo sapiens) (P08173 whole entry, looked up): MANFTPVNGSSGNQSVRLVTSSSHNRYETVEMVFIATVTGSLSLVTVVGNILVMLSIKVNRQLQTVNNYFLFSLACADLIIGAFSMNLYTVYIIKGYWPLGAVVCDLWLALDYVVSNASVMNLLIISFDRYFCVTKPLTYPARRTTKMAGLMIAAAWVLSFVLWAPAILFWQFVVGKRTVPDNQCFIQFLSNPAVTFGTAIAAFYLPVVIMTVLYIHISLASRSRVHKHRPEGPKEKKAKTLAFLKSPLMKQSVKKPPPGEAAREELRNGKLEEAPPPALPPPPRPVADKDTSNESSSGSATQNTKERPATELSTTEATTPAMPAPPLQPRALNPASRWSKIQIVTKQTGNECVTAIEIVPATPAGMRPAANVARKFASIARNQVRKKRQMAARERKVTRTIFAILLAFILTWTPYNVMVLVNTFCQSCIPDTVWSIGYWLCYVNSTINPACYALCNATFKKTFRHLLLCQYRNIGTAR
# [2] = Intrinsic clearance in rat microsomes; type: ADME, Microsome
# [3] = Fraction unbound in human plasma; type: ADME, cell-free
# [4] = Intrinsic clearance in human microsomes; type: ADME, Microsome
# [5] = Fraction unbound in rat brain; type: ADME, tissue-based
# [6] = Brain to plasma partition coefficient, Kp of the compound in Sprague-Dawley rat at 0.2 mg/kg, iv measured for 0.25 hrs; type: ADME, organism-based; conditions: brain and plasma
# [7] = Fraction unbound in rat plasma; type: ADME, cell-free
# [8] = Unbound brain to plasma concentration ratio in Sprague-Dawley rat at 0.2 mg/kg, iv measured for 0.25 hrs; type: ADME, organism-based; conditions: brain and plasma, read-out: K(p,uu,brain)
Structure (SMILES),Emax [1] [%],CLint scaled [2] [mL/min/kg],fraction unbound [3],CLint scaled [4] [mL/min/kg],fraction unbound [5],Kp at 0.25 h [6],fraction unbound [7],Kp uu at 0.25 h [8]
Cc1nnc2ccc(C(=O)NC3CN(c4ncc(C(F)(F)F)cn4)C3)cc2c1C,77,–,–,–,–,–,–,–
Cc1nnc2ccc(C(=O)NC3CN(c4ncc(C(F)(F)F)cc4Cl)C3)cc2c1C,76,–,–,–,–,–,–,–
Cc1nnc2ccc(C(=O)NC3CN(c4cccc(F)n4)C3)cc2c1C,84,–,–,–,–,–,–,–
Cc1nnc2ccc(C(=O)NC3CN(c4ncc(C5CC5)cc4Cl)C3)cc2c1C,77,–,–,–,–,–,–,–
Cc1nnc2ccc(C(=O)NC3CN(c4ccc(F)c(F)c4)C3)cc2c1C,82,26,0.051,50,0.022,< 0.05,0.002,< 0.56
Cc1nnc2ccc(C(=O)NC3CN(c4cccc(Cl)n4)C3)cc2c1C,77,–,–,–,–,–,–,–
Cc1nnc2ccc(C(=O)NC3CN(c4ccc(Cl)cn4)C3)cc2c1C,73,–,–,–,–,–,–,–
Cc1nnc2ccc(C(=O)NC3CN(c4ncccc4Cl)C3)cc2c1C,84,–,–,–,–,–,–,–

# The remaining lines, values ahead:
Emax [1] [%],CLint scaled [2] [mL/min/kg],fraction unbound [3],CLint scaled [4] [mL/min/kg],fraction unbound [5],Kp at 0.25 h [6],fraction unbound [7],Kp uu at 0.25 h [8],Structure (SMILES)
64,–,–,–,–,–,–,–,Cc1nnc2ccc(C(=O)NC3CN(c4cccc(C(F)(F)F)n4)C3)cc2c1C
81,–,–,–,–,–,–,–,Cc1nnc2ccc(C(=O)NC3CN(c4ccc(C#N)cn4)C3)cc2c1C
88,–,–,–,–,–,–,–,Cc1nnc2ccc(C(=O)NC3CN(c4ncc(OC(C)C)cn4)C3)cc2c1C
80,17,0.048,79,0.036,0.12,0.015,0.29,Cc1nnc2ccc(C(=O)NC3CN(c4ncc(F)cc4Cl)C3)cc2c1C
83,–,–,–,–,–,–,–,Cc1nnc2ccc(C(=O)NC3CN(c4ncccc4F)C3)cc2c1C
72,17,0.03,63,0.042,0.04,0.008,0.21,Cc1nnc2ccc(C(=O)NC3CN(c4ncc(C#N)cc4Cl)C3)cc2c1C
81,–,–,–,–,–,–,–,Cc1nnc2ccc(C(=O)NC3CN(c4ccc(OC(F)F)nc4)C3)cc2c1C
74,17,0.038,34,0.023,0.09,0.012,0.02,COc1cc(N2CC(NC(=O)c3ccc4nnc(C)c(C)c4c3)C2)c(Cl)cn1
82,12,0.032,54,0.009,0.03,0.026,0.09,Cc1nnc2ccc(C(=O)NC3CN(c4ncc(Cl)cc4F)C3)cc2c1C
92,32,0.06,60,0.036,0.03,0.017,0.06,Cc1nnc2ccc(C(=O)NC3CN(c4cc(Cl)ncc4Cl)C3)cc2c1C
80,–,–,–,–,–,–,–,Cc1nnc2ccc(C(=O)NC3CN(c4cnc(C5CC5)cn4)C3)cc2c1C
